This note sets out measurements from patent US11318079B2, “Polyhydroxylated (1-phenyl-2-phenyl) ethylene derivatives as an anti-ageing and photoprotective agent” (L'OREAL, priority 2015, dated 2022).

The subject of experiment [1] is keratinocytes of the HaCaT line. In words: Production of reactive oxygen species (ROS) induced by UVA in HaCaT keratinocytes (DHR123 or DCFH-DA probe). The class given is cell-based. As to conditions: for EC50: Homo sapiens, light or radiation study, 24 h incubation, UVA exposure, concentration allowing 50% photoprotection (500 μM vitamin C = 100%); for ROS production decrease: UVA-induced ROS. On the procedure: The decrease of the production of reactive oxygen species in keratinocytes of the HaCaT line is evaluated by detection, using the Dihydrorhodamine 123 (DHR123) probe or using Dichloro-dihydro-fluorescein diacetate (DCFH-DA) probe, the ROS production is induced by exposition to UVA after 24 h of incubation in the presence of the compounds to be tested. The DHR123 and DCFH-DA probes are indicators of the presence of reactive oxygen species (ROS). HaCaT keratinocytes in monolayer culture are placed in the presence of a solution of a compound to be tested at various concentrations (0.4-200 μM) in the medium. After 24 h of incubation, the cells are exposed to UVA, then incubated with the DHR123 probe or DCFH-DA probe for 1 h. The fluorescence of the probe is then measured. A viability test is carried out in parallel in order to discard the cytotoxic compounds. In parallel, the keratinocytes are incubated with vitamin C acting as a positive control and a standard: an incubation with 500 μM of vitamin C corresponds to 100% photoprotection. The dose-effect curves of the fluorescence detected as a function of the concentration of compounds (to be tested) present in the medium make it possible to calculate the effective dose EC50 which corresponds to the concentration of compound (to be tested) that allows 50% photoprotection of the keratinocytes.

For experiment [2], the system named is AMPK pathway (pACC, phosphorylated Acetyl-CoA Carboxylase) in NHEK cells. In words: Evaluation on AMPK pathway in NHEK cells by pACC immunolabeling. As to conditions: for % control (labeling % of the pACC compared to the control brought back to 100%) / global increase of the pACC labelling: NHEK cells, Compound 4 at 10 μM; for % control (labeling % of the pACC compared to the control brought back to 100%): 48 hours incubation, n=3, AICAR at 500 μM (0.5% DMSO); for global increase of the pACC labelling: AICAR reference at 500 μM. Type of experiment: cell-based, Human. On the procedure: Evaluation of the effect of compound 4 on the AMPK pathway in NHEK cells (Normal Human Epidermal Keratinocytes) by analysis of the pACC (Acetyl-CoA Carboxylase) phosphorylated form expression. This effect is studied by fluorescent immunolabeling and image analysis.
Keratinocytes are seeded in 96-well microplates and grown for 24 hours in a culture medium. The medium is then replaced by the test medium and cells are grown for 24 supplementary hours. Finally, the medium is replaced by the test medium comprising or not (control) the tested compounds, the reference (AICAR) or the control solvent (0.1% or 0.5% DMSO) then the cells are incubated for 48 hours. All the test conditions were carried out with n=3.
After incubation, the immunolabeling is done. The results are expressed in labeling % of the pACC compared to the control brought back to 100%.

The mark [3] stands for this setting: DCFH-DA probe, read-out: EC50- DCFH-DA.
Where [4] appears, read: DHR123 probe, read-out: EC50 -DHR123.

Like-named read-outs stand apart in the source and are kept apart here.

Broadly, the EC50 is the concentration needed to bring the measured effect to its halfway point. Take `COc1cc(/C=C/c2ccc(OC(C)=O)c(OC)c2)ccc1O` [Compound 5]: the EC50 in experiment [1] (setting [3]) turned out to be 29 µM. For the same molecule, in experiment [1], the ROS production decrease entry is “Yes”.

For `COc1cc(/C=C/c2ccc(OC)c(OC)c2)ccc1O` [Compound 4], in experiment [1] (setting [4]), the EC50 turned out to be 100 µM. For the same molecule, the ROS production decrease result in experiment [1] is “Yes”. Also, the “activation of the AMPK route in normal human keratinocytes” value in experiment [2] (10 μM) was “capable to active the AMPK route”. Further, in experiment [2], the “% control (labeling % of the pACC compared to the control brought back to 100%)” value is listed as 119% and the “global increase of the pACC labelling” value was 19%.

As to `COc1ccc(/C=C/c2ccc(O)c(OC)c2)cc1` [Compound 1], the concentration giving a half-maximal response (EC50) in experiment [1] (setting [3]) was 20 µM; in experiment [1] (setting [4]), 36 µM. In addition, in experiment [1], the ROS production decrease entry is given as “Yes”.

For the molecule `NC(=O)c1ncn([C@@H]2O[C@H](CO)[C@@H](O)[C@H]2O)c1N` [AICAR, reference compound], in experiment [2], the “% control (labeling % of the pACC compared to the control brought back to 100%)” value is listed as 117% and the “global increase of the pACC labelling” value is given as 17%.
